Results taken from publication PMC9101728, “Isolation and HPLC Quantitative Determination of 5α-Reductase Inhibitors from Tectona grandis L.f. Leaf Extract” (Molecules, 2022).
“And” between values parts separate entries of the source, which are not always exact repeats. Equal values may be shown once. Read-outs that look alike come from different tables or passages of the source.

Columns and labels:
5α-reductase [1] = target: T1, 5α-reductase (Homo sapiens, UniProt P18405); experiment: Enzymatic 5α-reductase inhibition assay (conversion of testosterone to DHT, LC-MS), crude enzyme from LNCaP cells; format: biochemical; set-up: adding 80 µL of homogenized crude enzyme (equivalent to 75 µg protein); host or cells: LNCaP cells, sonicated homogenate used as crude enzyme; settings: for IC50: isolated compounds, LNCaP cell crude enzyme, mean ± SD of triplicate, read-out: IC50 against 5α-reductase (converted); for 5α-reductase inhibitory activity (in words): qualitative statement
T1 sequence (P18405 1-259): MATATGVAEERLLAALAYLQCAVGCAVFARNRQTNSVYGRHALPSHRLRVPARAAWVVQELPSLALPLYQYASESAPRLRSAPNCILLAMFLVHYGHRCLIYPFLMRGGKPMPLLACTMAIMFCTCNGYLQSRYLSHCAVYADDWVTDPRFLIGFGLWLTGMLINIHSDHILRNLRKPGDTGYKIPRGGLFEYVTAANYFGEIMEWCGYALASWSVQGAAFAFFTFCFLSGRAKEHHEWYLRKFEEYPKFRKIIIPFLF
Method: The steroid 5α-reductase inhibitory activity of samples on the conversion of testosterone to DHT was determined using LNCaP cell as a source of enzyme.
5α-reductase was prepared as a crude enzyme from the androgen-dependent LNCaP cells (ATCC® CRL-1740^TM) using the procedure as described by Fachrunniza et al., which was modified from Srivilai et al.. Briefly, the LNCaP cells were cultured in a 175 cm^2 culture flask at 37 °C under a 5% CO2 humidified atmosphere and cultured until reaching approximately 80% confluency. The medium was removed and the cells were rinsed with tris-HCl buffer solution, pH 7.4 (containing 10 mM Tris-HCl buffer; 50 mM KCl; 1 mM EDTA; 0.5 mM phenylmethanesulfonyl fluoride). The cells were then scraped off and centrifuged at 1900× g for 10 min. The cell pellets were collected and re-suspended in tris-HCl buffer solution pH 7.4 to a concentration of ≥9 × 10^7 cells/mL and the resultant cell pellets were kept in an ice bath and homogenized using a sonication probe. The total protein content in the homogenized crude enzyme was not less than 75 µg protein equivalent in this 5α-reductase inhibitory assay, which was measured using the Pierce bicinchoninic acid (BCA) protein assay (Pierce, Rockford, IL, USA).
The in vitro inhibitory activity of the samples against the conversion of testosterone to DHT by 5α-reductase was carried out according to the method described by Srivilai et al.. The DHT formation after the enzymatic reaction was determined using liquid chromatography mass spectrometry (LC-MS) to measure 5α-reductase activity. […] In the assay, the reaction was performed in U-shaped 96-deep-well plates covered by well-cap mats to create a solution that contained 10 µL of the tested sample dissolved in dimethyl sulfoxide (DMSO), 20 µL of testosterone (34.7 µM in propylene glycol and water), and 50 µL of β-nicotinamide adenine dinucleotide phosphate (NADPH, 1 mM in tris-HCl buffer pH 7.4). The enzymatic reaction was started by adding 80 µL of homogenized crude enzyme (equivalent to 75 µg protein), and the final volume was adjusted to 200 µL by adding 40 µL of tris-HCl buffer pH 7.4. The reaction was maintained in a water bath with a shaker at 37 °C for 60 min and then the reaction was stopped by adding 300 µL of hydroxylamine hydrochloride (HM) (10 mg/mL in 80% v/v ethanol). The solution was then incubated for another 60 min at 60 °C to completely derivatize all the DHT that was produced. After incubation, the solution was centrifuged at 1700× g for 10 min and the supernatant was collected for quantitated DHT production by LC-MS. Two control groups, C0 and C60, were prepared with all the solutions, including 10 µL of DMSO, but no test sample. Control group C0 was stopped (by adding HM) before the enzymatic incubation at 0 min, while the control group C60 continued with the enzymatic reaction and was stopped after 60 min of incubation. The DHT production was determined using LC-MS. The inhibition of tested sample was determined by measuring the area under the curve (AUC) of extracted ion chromatogram (EIC) of derivatized-DHT (m/z [M + H]^+, 306.2428) which was used to calculate the enzymatic reaction inhibition by the following Equation (1):(1) 5α-reductase inhibitory activity (%)= [1 −AUC of sample−AUC of C0/AUC of C60 −AUC of C0] ×100

5α-reductase [2] = target: T1, 5α-reductase; settings: read-out: IC50 against 5α-reductase; positive controls; same assay system; cited from earlier work

In the case of `CC1=C(CC/C(C)=C/C(=O)O)[C@@]2(C)CCCC(C)(C)[C@@H]2CC1` [Compound 1, (+)-eperua-8,13-dien-15-oic acid], the IC50 (5α-reductase [1]) is reported as 14.2 µM and the “5α-reductase inhibitory activity (in words)” value (5α-reductase [1]) is reported as “potent 5α-reductase inhibitory activity”.

With `CC1=CC[C@H]2C(C)(C)CCC[C@]2(C)[C@H]1CC/C(C)=C/C(=O)O` [Compound 2, (+)-eperua-7,13-dien-15-oic acid] the IC50 (5α-reductase [1]) was 14.6 µM and the “5α-reductase inhibitory activity (in words)” value (5α-reductase [1]) was “potent 5α-reductase inhibitory activity”.

With `C=C(C)[C@@H]1CC[C@]2(C)CC[C@]3(C)[C@H](CC[C@@H]4[C@@]5(C)CC[C@H](O)C(C)(C)[C@@H]5CC[C@]43C)[C@@H]12` [Compound 3, lupeol] the IC50 (5α-reductase [1]) was > 400 µM and the “5α-reductase inhibitory activity (in words)” value (5α-reductase [1]) was “weak inhibitory activity”.

For `CC(C)(C)NC(=O)[C@H]1CC[C@H]2[C@@H]3CC[C@H]4NC(=O)C=C[C@]4(C)[C@H]3CC[C@]12C` [Finasteride], the IC50 (5α-reductase [2]) is given as 0.752 µM and 0.73 µM.
